Measured values as given in patent US6391921B1 (priority 2000, dated 2002).

Experiments:
[1] = test system: Balb/c mice; test: IgE-dependent passive cutaneous anaphylaxis (Evans blue dye extravasation); format: in vivo; details: 25 mg/kg i.p. twice at 1 hour intervals prior to antigen challenge; 30 minutes after challenge; vehicle 0.64±0.08
Protocol: The in vivo biologic activity of compound D-58 was examined in a well characterized murine model of passive cutaneous anaphylaxis. In order to induce passive cutaneous anaphylaxis, left ears of Balb/c mice were sensitized with 50 μg DNP-IgE intradermally. Right ears were injected with equal volumes of saline. Dorsal sides of the ears of Balb/c mice were injected intradermally with 50 μg of DNP-IgE (left ears) or PBS (right ears) using a 30-gauge needle (ref 28). Twenty hours later, mice were challenged with 100 μg antigen (DNP-BSA) in 200 μl 2% Evans blue dye intravenously. Control mice were given PBS (but not antigen) intravenously with 2% Evans blue. For quantitation of Evans blue dye extravasation as a measure of anaphylaxis-associated vascular hyperpermeability, 8 mm^2 skin specimens were removed from the ears of mice, minced in 2 ml formamide and incubated in a 80° C. water bath for 2 hours to extract the dye. The absorbance was read at 570 nm using a spectrophotometer.
For assessment of the vascular leak, animals were sacrificed 30 minutes after the antigen challenge. The plasma exudation was assessed by quantitation of the amount of Evan's blue dye extravasated into the ear skin 30 minutes after the antigen challenge. […]

[2] = test system: HaCaT cells; test: PGE2 release from UVB-irradiated HaCaT cells; format: cell-based, human; details: 20 mJ/cm^2 UVB, 24 hours post irradiation; FIG. 5
Excerpt: A bank of 8-FSX24T12/HO/UVB lamps (National Biological Corporation, Twinsburg, Ohio) that emit light predominantly in the UVB range (280-320 nm) was used to irradiate the cell cultures. The performance of the UVB lamps was always confirmed before irradiation using a UVB meter (model-500C obtained from National Biological Corporation, Twinsburg, Ohio). The dose of UVB light used to irradiate cell cultures was 20 mJ/cm^2. Confluent HaCaT cells cultured in 24-well culture dishes were washed three times with serum-free DMEM containing 1% BSA and incubated with indicated concentrations of compound D-58 for 1 hour at 37° C. […] Compound D-58 was readministered after irradiation and the cells were incubated for another 24 hours at 37° C. The cell supernatants were collected and their PGE2 concentration was measured by ELISA. The protein contents of the cell pellets were determined using the Pierce BCA protein assay method.
One of the major arachidonic acid metabolites in UVB-irradiated epidermal cells is prostaglandin E2 (PGE2), which induces edema and erythema in skin (refs 34 and 35). PGE2 release can be detected as early as 6 hours and peaks between 24-48 hours following UVB exposure. […]
To summarize, confluent monolayers of the human epidermal cell line HaCaT were either irradiated with UVB (20 mJ/cm^2) or sham irradiated. […] The drug was readministered after UVB exposure. […]

[3] = test system: skh-1 mice; test: Histological studies of UVB-irradiated skin; format: in vivo
Excerpt: After mice from Example 7 were sacrificed electively, a skin specimen was removed and spread on a sheet of dental wax. An 8 mm^2 biopsy punch was taken and fixed in buffered formalin. 4-5 μm thick sections were cut from paraffin blocks. In order to study the histopathological changes in skin following UVB exposure, the tissue sections were stained with hematoxylin and eosin and the stained slides were examined microscopically.
The effects of compound D-58 on UVB-induced histological changes in skin were examined and the results are illustrated in the 40× magnifications of FIGS. 8A-8C. The normal epidermis typically has a 2-3 cell layer and contains scattered inflammatory cells especially around hair follicles (FIG. 8A). […] Large numbers of neutrophils also were accumulated in the dermis (FIG. 8B). In contrast, the skin of mice treated with compound D-58 looked very much like the skin of unirradiated controls (FIG. 8C), with 1-2 cell layers of epidermis and normal dermis.

## COc1ccc(CC(=O)c2c(O)cc(O)cc2O)cc1 [Compound D-58]
[1]
  Evans blue dye extravasation in DNP-IgE injected ears, Absorbance at 570 nm: 0.26±0.02
[2]
  PGE2 release from UVB irradiated cells: inhibited the PGE2 release
[3]; UVB-irradiated skin of treated mice, FIG. 8C, UVB-irradiated untreated 3-5, normal 2-3
  cell layers of epidermis: 1-2
[3]; histology, hematoxylin and eosin
  edema and neutrophil influx in UVB irradiated skin: prevented the development of edema and neutrophil influx
